Assay [1] addresses T1, Mannose-6-phosphate isomerase (Homo sapiens, UniProt P34949).
T1 sequence (P34949 whole entry): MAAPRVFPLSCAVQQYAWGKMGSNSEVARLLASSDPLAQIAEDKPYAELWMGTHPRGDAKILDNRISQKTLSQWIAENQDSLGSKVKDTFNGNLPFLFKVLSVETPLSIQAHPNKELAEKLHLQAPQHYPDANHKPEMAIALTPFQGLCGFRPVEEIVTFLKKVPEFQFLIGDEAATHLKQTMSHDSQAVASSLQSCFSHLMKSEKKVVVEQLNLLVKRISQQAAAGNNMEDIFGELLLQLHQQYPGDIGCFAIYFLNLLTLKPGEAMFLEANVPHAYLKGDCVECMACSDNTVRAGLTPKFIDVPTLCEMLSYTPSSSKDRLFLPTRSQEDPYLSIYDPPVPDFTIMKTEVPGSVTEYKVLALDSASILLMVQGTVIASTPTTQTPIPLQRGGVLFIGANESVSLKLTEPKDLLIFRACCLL
In words: PMI enzyme inhibitors, confirmation, biochemical, fluorescence intensity (AID 1535).

Assay [2] deals with T2, Alkaline phosphatase, tissue-nonspecific isozyme (Homo sapiens, UniProt P05186).
T2 sequence (P05186 whole entry): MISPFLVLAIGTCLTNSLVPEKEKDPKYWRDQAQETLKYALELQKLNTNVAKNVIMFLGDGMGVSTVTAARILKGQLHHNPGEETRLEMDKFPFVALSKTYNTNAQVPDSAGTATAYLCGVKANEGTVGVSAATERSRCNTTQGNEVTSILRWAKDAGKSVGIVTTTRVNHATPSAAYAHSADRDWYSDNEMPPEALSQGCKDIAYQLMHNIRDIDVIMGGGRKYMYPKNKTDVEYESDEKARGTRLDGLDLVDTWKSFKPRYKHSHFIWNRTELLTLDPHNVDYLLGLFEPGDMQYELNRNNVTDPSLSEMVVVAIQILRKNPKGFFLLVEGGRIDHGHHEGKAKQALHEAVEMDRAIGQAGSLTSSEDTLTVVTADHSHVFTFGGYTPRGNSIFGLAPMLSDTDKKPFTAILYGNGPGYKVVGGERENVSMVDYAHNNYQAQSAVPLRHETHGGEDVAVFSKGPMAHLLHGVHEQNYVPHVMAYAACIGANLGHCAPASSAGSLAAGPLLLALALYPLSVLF
Nature of the assay: human TNAP enzyme inhibitors, SAR follow-up, biochemical, luminescent, dose response (AID 1056).

Assay [3] concerns the target Alkaline phosphatase, placental type (Homo sapiens, UniProt P05187). In words: PLAP enzyme inhibitors, confirmation, biochemical, luminescence (AID 1512). The assay is classed as functional.
Assay [4] concerns the target Glyceraldehyde-3-phosphate dehydrogenase (Homo sapiens, UniProt P04406).
The target of assay [5] is T3, High affinity choline transporter 1 (Homo sapiens, UniProt Q9GZV3).
T3 sequence (Q9GZV3 whole entry): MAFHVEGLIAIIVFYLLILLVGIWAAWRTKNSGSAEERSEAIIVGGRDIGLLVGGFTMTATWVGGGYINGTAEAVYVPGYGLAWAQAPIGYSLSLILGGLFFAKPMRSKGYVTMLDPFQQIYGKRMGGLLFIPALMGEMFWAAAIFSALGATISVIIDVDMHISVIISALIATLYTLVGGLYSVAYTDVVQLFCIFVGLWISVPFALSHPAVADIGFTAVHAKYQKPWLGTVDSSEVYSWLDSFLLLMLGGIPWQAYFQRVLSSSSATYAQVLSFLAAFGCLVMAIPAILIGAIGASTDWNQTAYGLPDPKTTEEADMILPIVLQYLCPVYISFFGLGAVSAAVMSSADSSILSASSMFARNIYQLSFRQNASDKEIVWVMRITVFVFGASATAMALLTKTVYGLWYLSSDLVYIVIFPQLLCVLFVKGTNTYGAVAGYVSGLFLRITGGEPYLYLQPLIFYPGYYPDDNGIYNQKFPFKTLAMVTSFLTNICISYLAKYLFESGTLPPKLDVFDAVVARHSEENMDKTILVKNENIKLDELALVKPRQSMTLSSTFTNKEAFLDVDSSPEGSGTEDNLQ
Nature of the assay: CHT inhibitors, dose response, cell-based, 10-point CRC, membrane potential dye (AID 588401).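 Note: membrane potential dye fluorescence of choline-evoked depolarization via CHT.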 The assay is classed as functional.

The target of assay [6] is T3, High affinity choline transporter 1. Nature of the assay: CHT inhibitors, dose response, cell-based, 5-point CRC, membrane potential dye (AID 504840). The assay is classed as functional.
For assay [7], the system named is CHO. Nature of the assay: cytotoxicity in TLR9-MyD88 CHO cells, dose response, cytotoxicity control for TLR9-MyD88 binding inhibitor project, cell-based, luminescence (AID 588339).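 Note: CHO cells stably coexpressing TLR9 and MyD88 fusions from primary screen; compound exposure lasted 48 hours before viability readout.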 The format is functional, hamster. Particulars: Cricetulus griseus.
In assay [8] the target is T4, Hexokinase (Trypanosoma brucei, UniProt Q38C41).
T4 sequence (Q38C41 whole entry): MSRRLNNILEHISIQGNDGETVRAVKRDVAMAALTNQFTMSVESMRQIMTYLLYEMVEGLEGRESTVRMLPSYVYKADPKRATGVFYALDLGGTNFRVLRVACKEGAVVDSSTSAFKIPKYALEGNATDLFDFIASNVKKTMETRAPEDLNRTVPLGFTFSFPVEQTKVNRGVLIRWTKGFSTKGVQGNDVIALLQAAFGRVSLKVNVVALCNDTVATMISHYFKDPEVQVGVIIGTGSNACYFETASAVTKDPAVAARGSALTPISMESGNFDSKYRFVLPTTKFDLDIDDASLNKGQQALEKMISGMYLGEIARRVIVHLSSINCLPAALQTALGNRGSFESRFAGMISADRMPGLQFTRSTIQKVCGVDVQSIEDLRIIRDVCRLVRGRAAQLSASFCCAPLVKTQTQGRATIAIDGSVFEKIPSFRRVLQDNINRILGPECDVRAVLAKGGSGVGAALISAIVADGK
Nature of the assay: Confirmation assay for inhibitors of Trypanosoma brucei hexokinase 1-Analogue-first series. [Related pubchem assays (depositor defined):AID1430, AID1632, AID2516, AID2560, AID2579, AID2600, AID449725, AID492951]. The format is functional.

The target in assay [9] is 26S proteasome non-ATPase regulatory subunit 14 (Homo sapiens, UniProt O00487). Nature of the assay: inhibition of proteasome subunit RPN11 – biochemical, fluorescence polarization, uHTS hits, confirmation (AID 602368). The format is functional. On the technique in general: In fluorescence polarisation assays a small probe gives low polarisation when free and higher when bound to something large.
26S proteasome non-ATPase regulatory subunit 14, sequence (O00487 whole entry): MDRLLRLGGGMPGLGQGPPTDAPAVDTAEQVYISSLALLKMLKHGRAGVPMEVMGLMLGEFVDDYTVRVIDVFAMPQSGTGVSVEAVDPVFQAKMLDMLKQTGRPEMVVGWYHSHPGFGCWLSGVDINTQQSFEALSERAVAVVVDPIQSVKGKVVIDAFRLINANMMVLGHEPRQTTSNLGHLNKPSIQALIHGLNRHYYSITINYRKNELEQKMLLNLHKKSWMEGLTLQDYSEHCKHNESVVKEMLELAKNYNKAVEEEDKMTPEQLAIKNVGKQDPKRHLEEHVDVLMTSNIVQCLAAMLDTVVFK

For assay [10], the target named is Prothrombin (Bos taurus, UniProt P00735). Nature of the assay: thrombin inhibition, dose response, biochemical, fluorescence polarization, uHTS hits (AID 602369). The format is functional.
In assay [11] the target is 72 kDa type IV collagenase (Homo sapiens, UniProt P08253). Nature of the assay: Dose Response validation of uHTS RPN11 inhibitor hits using a MMP-2 Fluorescence assay. The format is functional.
72 kDa type IV collagenase, sequence (P08253 whole entry): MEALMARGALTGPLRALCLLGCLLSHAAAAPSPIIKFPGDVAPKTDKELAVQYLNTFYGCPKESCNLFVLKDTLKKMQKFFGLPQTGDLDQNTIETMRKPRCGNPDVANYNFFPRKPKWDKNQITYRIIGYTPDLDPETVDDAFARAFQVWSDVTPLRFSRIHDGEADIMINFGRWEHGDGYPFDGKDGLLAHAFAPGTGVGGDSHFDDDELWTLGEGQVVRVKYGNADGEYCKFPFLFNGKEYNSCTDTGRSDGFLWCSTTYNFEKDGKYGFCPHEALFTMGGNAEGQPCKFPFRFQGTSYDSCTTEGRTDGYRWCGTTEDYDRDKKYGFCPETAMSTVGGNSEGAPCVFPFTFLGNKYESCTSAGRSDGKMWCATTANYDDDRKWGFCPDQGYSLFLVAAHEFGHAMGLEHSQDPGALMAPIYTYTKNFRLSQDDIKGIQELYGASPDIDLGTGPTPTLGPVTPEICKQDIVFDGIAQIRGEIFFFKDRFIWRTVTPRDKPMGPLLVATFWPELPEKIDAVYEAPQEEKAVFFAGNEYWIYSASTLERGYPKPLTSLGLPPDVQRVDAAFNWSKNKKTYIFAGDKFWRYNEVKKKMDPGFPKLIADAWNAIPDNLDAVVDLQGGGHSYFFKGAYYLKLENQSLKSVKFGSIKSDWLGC
In assay [12] the target is T5, Coagulation factor XII (Homo sapiens, UniProt P00748).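 Note: activated factor XIIa alpha cleaving a fluorogenic AMC peptide substrate; inhibitor potency from loss of enzyme activity.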
T5 sequence (P00748 whole entry): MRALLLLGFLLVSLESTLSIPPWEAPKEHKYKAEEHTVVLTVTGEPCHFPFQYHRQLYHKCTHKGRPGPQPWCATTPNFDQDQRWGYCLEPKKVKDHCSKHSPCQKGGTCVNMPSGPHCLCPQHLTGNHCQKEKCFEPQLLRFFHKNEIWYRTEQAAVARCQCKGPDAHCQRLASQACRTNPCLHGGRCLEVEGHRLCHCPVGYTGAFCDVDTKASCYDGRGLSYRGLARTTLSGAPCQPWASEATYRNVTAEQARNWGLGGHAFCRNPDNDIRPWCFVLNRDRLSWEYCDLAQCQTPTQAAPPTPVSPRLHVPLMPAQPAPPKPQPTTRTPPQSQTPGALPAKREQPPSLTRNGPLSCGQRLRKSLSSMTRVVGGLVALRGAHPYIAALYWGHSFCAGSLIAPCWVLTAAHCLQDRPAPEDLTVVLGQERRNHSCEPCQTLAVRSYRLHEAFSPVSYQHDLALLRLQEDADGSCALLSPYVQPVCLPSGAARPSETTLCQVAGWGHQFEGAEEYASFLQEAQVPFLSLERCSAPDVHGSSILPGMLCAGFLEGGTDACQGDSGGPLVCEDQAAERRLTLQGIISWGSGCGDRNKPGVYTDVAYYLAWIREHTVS
The assay is classed as functional.

Assay [13] addresses Ras and Rab interactor 1/Tyrosine-protein kinase ABL1 (Homo sapiens, UniProt P00519+Q13671). The assay is classed as functional.
In assay [14] the target is Voltage-dependent T-type calcium channel subunit alpha-1H (Homo sapiens, UniProt O95180). The format is functional.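 Note: channel activity triggered by adding a high calcium stimulation buffer.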
The subject of assay [15] is HeLa. Nature of the assay: HeLa cell cytotoxicity, dose response, cytotoxicity control for MITF activator project, CellTiter-Glo luminescence, cherry-pick samples (AID 540259). The format is functional, cell-based. Particulars: Homo sapiens. Background: In ATP-based viability assays light output follows the ATP content of the culture.
Assay [16] deals with Cytochrome P450 2D6 (Homo sapiens, UniProt P10635).
Cytochrome P450 2D6, sequence (P10635 whole entry): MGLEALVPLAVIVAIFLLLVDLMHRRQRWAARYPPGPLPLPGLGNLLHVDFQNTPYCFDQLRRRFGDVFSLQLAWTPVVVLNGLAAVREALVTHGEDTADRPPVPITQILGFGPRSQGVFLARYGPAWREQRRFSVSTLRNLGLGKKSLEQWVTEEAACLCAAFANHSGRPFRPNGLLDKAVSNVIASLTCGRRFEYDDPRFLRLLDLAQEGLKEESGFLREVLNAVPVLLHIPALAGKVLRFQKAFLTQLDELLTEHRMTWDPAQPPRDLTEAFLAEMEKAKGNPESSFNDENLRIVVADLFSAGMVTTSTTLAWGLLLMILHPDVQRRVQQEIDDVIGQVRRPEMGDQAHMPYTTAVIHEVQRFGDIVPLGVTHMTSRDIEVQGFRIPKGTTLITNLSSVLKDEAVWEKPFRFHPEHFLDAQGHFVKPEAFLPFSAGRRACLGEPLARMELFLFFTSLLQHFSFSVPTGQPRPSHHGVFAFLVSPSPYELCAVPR
The subject of assay [17] is H9c2. In words: cells. Particulars: Rattus norvegicus, H9c2, Myocardium. The format is functional, cell-based.
The target of assay [18] is T6, Nuclear receptor subfamily 0 group B member 1 (Homo sapiens, UniProt P51843).
T6 sequence (P51843 whole entry): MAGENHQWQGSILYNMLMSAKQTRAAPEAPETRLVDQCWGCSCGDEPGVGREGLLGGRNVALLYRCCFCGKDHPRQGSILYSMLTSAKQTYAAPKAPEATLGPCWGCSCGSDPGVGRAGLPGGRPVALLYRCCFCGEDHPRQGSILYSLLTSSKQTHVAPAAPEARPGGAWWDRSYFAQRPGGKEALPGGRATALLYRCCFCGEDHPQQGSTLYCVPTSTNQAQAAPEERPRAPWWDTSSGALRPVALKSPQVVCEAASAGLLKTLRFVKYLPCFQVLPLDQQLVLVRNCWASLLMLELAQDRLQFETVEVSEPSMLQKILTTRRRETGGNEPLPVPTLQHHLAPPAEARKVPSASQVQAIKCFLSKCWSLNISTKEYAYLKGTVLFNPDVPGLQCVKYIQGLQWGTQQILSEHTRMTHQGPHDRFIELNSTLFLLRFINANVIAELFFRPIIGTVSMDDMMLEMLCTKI
Nature of the assay: Luminescence-based cell-based high throughput dose response assay for inhibitors of the orphan nuclear receptor subfamily 0, group B, member 1 (DAX1; NR0B1). [Related pubchem assays (depositor defined):AID504766, AID504790]. The assay is classed as functional.

The subject of assay [19] is HEK293. Nature of the assay: cells. The assay is classed as functional, cell-based. Particulars: Homo sapiens.

The source made the active and inactive calls.

Alkaline phosphatase, placental type, sequence (P05187 whole entry): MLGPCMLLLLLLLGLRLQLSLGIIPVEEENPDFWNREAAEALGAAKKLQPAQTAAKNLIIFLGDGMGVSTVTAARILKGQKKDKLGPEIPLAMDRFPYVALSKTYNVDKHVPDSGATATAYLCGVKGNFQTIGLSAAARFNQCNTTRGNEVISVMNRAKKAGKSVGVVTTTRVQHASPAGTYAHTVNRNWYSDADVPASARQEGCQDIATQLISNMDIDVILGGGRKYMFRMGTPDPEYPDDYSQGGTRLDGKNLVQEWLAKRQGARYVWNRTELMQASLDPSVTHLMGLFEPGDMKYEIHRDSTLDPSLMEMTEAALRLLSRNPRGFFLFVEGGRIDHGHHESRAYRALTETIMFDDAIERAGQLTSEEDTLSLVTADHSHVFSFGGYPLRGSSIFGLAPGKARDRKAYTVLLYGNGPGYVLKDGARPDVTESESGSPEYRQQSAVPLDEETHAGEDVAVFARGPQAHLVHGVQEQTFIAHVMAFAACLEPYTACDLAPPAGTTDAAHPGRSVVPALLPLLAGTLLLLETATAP
Glyceraldehyde-3-phosphate dehydrogenase, sequence (P04406 whole entry): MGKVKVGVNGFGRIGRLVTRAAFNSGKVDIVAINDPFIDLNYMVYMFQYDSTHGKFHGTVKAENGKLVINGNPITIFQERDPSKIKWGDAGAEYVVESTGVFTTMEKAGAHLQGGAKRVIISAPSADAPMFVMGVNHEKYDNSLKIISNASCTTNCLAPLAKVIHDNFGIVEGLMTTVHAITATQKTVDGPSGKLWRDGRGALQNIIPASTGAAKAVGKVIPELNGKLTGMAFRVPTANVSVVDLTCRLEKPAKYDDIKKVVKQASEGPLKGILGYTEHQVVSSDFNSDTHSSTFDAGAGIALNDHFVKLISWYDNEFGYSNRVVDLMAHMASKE
Ras and Rab interactor 1/Tyrosine-protein kinase ABL1, sequence (P00519 whole entry): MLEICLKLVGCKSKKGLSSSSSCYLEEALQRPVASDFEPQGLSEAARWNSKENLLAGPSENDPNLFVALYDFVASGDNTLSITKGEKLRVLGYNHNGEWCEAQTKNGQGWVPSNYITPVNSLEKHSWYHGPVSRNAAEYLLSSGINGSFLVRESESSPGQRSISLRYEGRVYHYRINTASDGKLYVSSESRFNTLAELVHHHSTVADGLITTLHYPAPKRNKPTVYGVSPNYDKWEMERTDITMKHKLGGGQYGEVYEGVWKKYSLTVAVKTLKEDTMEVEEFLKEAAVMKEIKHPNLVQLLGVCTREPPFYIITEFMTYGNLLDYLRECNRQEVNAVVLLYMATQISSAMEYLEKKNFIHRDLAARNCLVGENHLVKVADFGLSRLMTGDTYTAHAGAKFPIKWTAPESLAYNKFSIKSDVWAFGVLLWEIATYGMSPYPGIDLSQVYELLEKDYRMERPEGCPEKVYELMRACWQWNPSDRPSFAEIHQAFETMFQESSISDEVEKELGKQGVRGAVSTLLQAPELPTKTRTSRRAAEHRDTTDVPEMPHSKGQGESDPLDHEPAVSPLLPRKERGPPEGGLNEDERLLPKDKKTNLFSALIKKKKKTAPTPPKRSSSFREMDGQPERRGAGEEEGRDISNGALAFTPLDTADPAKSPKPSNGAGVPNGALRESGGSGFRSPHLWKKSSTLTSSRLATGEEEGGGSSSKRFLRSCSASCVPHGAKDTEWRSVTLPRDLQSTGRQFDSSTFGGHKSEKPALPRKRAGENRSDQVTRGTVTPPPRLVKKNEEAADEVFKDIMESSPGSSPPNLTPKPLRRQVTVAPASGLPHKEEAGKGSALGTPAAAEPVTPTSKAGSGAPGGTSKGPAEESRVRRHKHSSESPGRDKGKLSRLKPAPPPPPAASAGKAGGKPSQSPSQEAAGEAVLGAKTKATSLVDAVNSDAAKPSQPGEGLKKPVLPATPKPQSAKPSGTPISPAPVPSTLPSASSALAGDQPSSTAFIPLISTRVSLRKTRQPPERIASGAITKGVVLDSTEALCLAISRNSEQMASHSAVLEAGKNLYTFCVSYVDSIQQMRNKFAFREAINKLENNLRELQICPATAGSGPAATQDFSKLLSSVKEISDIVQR
Ras and Rab interactor 1/Tyrosine-protein kinase ABL1, sequence (Q13671 whole entry): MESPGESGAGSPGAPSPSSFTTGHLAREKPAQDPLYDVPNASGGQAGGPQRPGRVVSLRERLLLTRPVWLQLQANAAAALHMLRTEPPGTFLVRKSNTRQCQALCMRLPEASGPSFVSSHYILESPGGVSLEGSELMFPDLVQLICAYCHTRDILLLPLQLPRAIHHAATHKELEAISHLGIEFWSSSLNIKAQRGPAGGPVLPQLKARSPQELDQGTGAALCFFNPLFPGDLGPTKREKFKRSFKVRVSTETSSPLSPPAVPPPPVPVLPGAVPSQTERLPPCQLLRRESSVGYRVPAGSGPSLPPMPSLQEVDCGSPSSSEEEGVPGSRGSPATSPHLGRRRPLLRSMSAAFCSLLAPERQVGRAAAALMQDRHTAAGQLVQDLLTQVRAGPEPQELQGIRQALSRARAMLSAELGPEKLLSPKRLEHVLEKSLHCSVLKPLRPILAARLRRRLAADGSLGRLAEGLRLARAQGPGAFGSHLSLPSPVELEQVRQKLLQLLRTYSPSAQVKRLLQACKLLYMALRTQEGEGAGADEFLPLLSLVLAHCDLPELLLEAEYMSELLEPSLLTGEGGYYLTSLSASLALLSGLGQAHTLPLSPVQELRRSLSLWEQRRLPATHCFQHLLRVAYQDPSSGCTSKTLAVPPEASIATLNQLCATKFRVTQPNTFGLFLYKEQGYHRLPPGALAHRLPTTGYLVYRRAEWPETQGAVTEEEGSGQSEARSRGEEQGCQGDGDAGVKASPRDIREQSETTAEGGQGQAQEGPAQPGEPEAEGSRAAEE

As usually defined, the IC50 is the concentration needed to halve the response being measured. Take `Clc1ccnc(/N=c2\ssnc2Cl)c1`: the IC50 in assay [1] is > 100 µM (inactive). On to `O=C(O)c1cc(-c2cc(F)c(Cl)cc2Cl)n[nH]1`, for which the IC50 in assay [2] is 1.09 µM (active); in assay [3], > 100 µM (inactive); in [4] it was > 100 µM (not active). `COc1ccc(C(=O)C[n+]2cccc(Br)c2)cc1`: the IC50 in assay [5] was 1.19 µM (active); in assay [6], 4.21 µM (active). For the molecule `O=C(NCc1cccc(C(F)(F)F)c1)c1cccc2c1C(=O)c1ccc(N3CCC(Cc4ccccc4)CC3)cc1S2(=O)=O`, the IC50 in assay [7] was > 49.8 µM (inactive). Consider `COC(=O)c1ccc(Cl)cc1NC(=O)c1ccc(Cl)cc1`, for which the IC50 in [8] was > 25 µM (inactive). `COC(=O)c1ccc(N2NC(=O)/C(=C/c3cc(OC)c(O)c(OC)c3)C2=O)cc1`: the half-maximal inhibitory concentration (IC50) is 18.5 µM (active) in [9], 27 µM (active) in [10] and 81.6 µM (active) in assay [11].

For the molecule `O=C(Cn1nnc(-c2ccccc2)n1)OCc1csc(-c2ccccc2)n1`, the IC50 in assay [12] is > 50 µM (inactive). For `C=CCn1c(SCC(=O)c2ccc(O)c(O)c2)nnc1-c1ccccc1`, the results for the concentration for half-maximal inhibition (IC50) in [2] and in assay [3] were 19.5 µM (active) and 2.53 µM (active), respectively. With `Cc1ccccc1-n1nc(CSc2nc3ccccc3[nH]2)c(-c2ccccc2)c1N`, the IC50 in [3] was > 100 µM (inactive). For `CCCCC(=O)C1CCN(Cc2ccccc2)CC1`, the IC50 in assay [13] is 19.4 µM (inactive). The term EC50 denotes the midpoint of the concentration-response curve. For orientation: AC50 means the concentration giving half of the maximal activity seen. For `Cc1csc(NC(=O)Cc2c[nH]c3ccccc23)n1`, the EC50 in [14] is 9.34 µM (active). In addition, the AC50 in [15] is 320 µM (active); in [16], 22.4 µM (inconclusive). In assay [12], the IC50 was > 50 µM (inactive). With `CCSc1nnc(NC(=O)C(C)(C(F)(F)F)C(F)(F)F)s1`, the figures for the half-maximal inhibitory concentration (IC50) in assay [5] and in assay [6] were 2.82 µM (active) and 3.47 µM (active), respectively.

Take `C#CCOc1nc(Nc2cccc([N+](=O)[O-])c2)nc(OCC#C)n1`: the IC50 in [17] is > 79 µM (inactive); in assay [12], > 50 µM (inactive).

For the molecule `COc1ccc(C(=O)Nc2ccccc2C(=O)O)cc1`, the IC50 in assay [8] was > 25 µM (inactive).

`O=C1CSC(=S)N1N=Cc1ccc(Cl)s1`: the IC50 in assay [9] is 59.4 µM (active); in [10], 27.1 µM (active); in assay [11], > 100 µM (inactive). Turning to `COc1ccc(-c2cc(C(=O)O)[nH]n2)c(OC)c1`, the IC50 in assay [2] is 38.2 µM (active); in assay [4], > 100 µM (not active).

For `O=C(COC(=O)c1[nH]nc2ccccc12)Nc1ccccc1`, the IC50 in [18] and in assay [19] was > 67.5 µM (inactive) each time. In the case of `COc1cccc(C(=O)Nc2cc(Cl)ccc2C(=O)O)c1`, in [8], the IC50 was 17.9 µM (active).

Source of the values: ChEMBL document CHEMBL1201862, “PubChem BioAssay data set” (2004).
